Source: patent US20020091148A1, “3-substituted indole antiproliferative angiogenesis inhibitors” (priority 2000, published 2002)

System: not given
Settings: not given

Row | melting point [°C] | Compound
1 | > 260 | O=C(NN=Cc1ccc(Cl)cc1)c1[nH]c2ccccc2c1C(=O)Nc1ccccc1 [Example 107, 2-((2-(4-chlorobenzylidene)hydrazino)carbonyl)-N-phenyl-1H-indole-3-carboxamide]
2 | 232 to 235 | CSc1c(C(=O)NN=Cc2ccc(Cl)cc2)[nH]c2ccccc12 [Example 108, N′-((4-chlorophenyl)methylidene)-3-(methylthio)-1H-indole-2-carbohydrazide]
3 | 216 to 222 | CSc1c(C(=O)NN=Cc2nccs2)[nH]c2ccccc12 [Example 109, 3-(methylthio)-N′-(1,3-thiazol-2-ylmethylidene)-1H-indole-2-carbohydrazide]
4 | > 280 | CS(=O)(=O)c1c(C(=O)NN=Cc2ccc(Cl)cc2)[nH]c2ccccc12 [Example 110, N′-((4-chlorophenyl)methylidene)-3-(methylsulfonyl)-1H-indole-2-carbohydrazide]
5 | > 250 | CS(=O)(=O)c1c(C(=O)NN=Cc2cccc3ccccc23)[nH]c2ccccc12 [Example 135, 3-(methylsulfonyl)-N′-(1-naphthylmethylidene)-1H-indole-2-carbohydrazide]
6 | 196 to 199 | CN(N=Cc1ccco1)C(=O)c1[nH]c2ccccc2c1-c1ccccc1 [Example 149, N′-(2-furylmethylidene)-N-methyl-3-phenyl-1H-indole-2-carbohydrazide]
7 | 194 to 196 | CN(N=Cc1ccc(C#N)cc1)C(=O)c1[nH]c2ccccc2c1-c1ccccc1 [Example 150, N′-((4-cyanophenyl)methylidene)-N-methyl-3-phenyl-1H-indole-2-carbohydrazide]
8 | 210 to 212 | CN(N=Cc1ccc(Br)cc1)C(=O)c1[nH]c2ccccc2c1-c1ccccc1 [Example 151, N′-((4-bromophenyl)methylidene)-N-methyl-3-phenyl-1H-indole-2-carbohydrazide]
9 | 248 to 250 | CN(N=Cc1cnc[nH]1)C(=O)c1[nH]c2ccccc2c1-c1ccccc1 [Example 152, N′-(1H-imidazol-5-ylmethylidene)-N-methyl-3-phenyl-1H-indole-2-carbohydrazide]

The remaining lines, values behind:

Row | Compound | melting point [°C]
10 | O=C(NN=Cc1ccc(Cl)cc1)c1[nH]c2ccccc2c1Cc1ccccc1 [Example 103, 3-benzyl-N′-((4-chlorophenyl)methylidene)-1H-indole-2-carbohydrazide] | 221 to 222
11 | O=C(NN=Cc1ccc(Br)cc1)c1[nH]c2ccccc2c1Cc1ccccc1 [Example 104, 3-benzyl-N′-((4-bromophenyl)methylidene)-1H-indole-2-carbohydrazide] | 227 to 229
12 | CCN(CC)C(=O)c1c(C(=O)NN=Cc2ccc(Cl)cc2)[nH]c2ccccc12 [Example 105, 2-((2-(4-chlorobenzylidene)hydrazino)carbonyl)-N,N-diethyl-1H-indole-3-carboxamide] | 255 to 257
13 | CS(=O)(=O)c1c(C(=O)NN=Cc2nccs2)[nH]c2ccccc12 [Example 111, 3-(methylsulfonyl)-N′-(1,3-thiazol-2-ylmethylidene)-1H-indole-2-carbohydrazide] | > 280
14 | COc1c(C(=O)NN=Cc2ccc(Cl)cc2)[nH]c2ccccc12 [Example 118, N′-((4-chlorophenyl)methylidene)-3-methoxy-1H-indole-2-carbohydrazide] | 249 to 251
15 | O=C(NN=Cc1ccc(Cl)cc1)c1[nH]c2ccccc2c1Br [Example 119, 3-bromo-N′-((4-chlorophenyl)methylidene)-1H-indole-2-carbohydrazide] | > 250
16 | CN(C)C(=O)c1c(C(=O)NN=Cc2ccc3ccccc3c2)[nH]c2ccccc12 [Example 136, N,N-dimethyl-2-((2-(2-naphthylmethylene)hydrazino)carbonyl)-1H-indole-3-carboxamide] | 256 to 260

System: certain tumor models
Settings: Adv. Cancer Res. 2000, 79, 1-38; cited from earlier work

Row | Compound | in vivo activity against certain tumor models
17 | Cc1cc(C)c(/C=C2\C(=O)Nc3ccccc32)[nH]1 [SU5416] | good in vivo activity
